In US6399654B1, “Biflavanoids and derivatives thereof as antiviral agents” (priority 1995, dated 2002):
≈ marks a conversion by molar mass, not a printed value. Where two headings read alike, the source gives them in different places.

What was measured:
[1] = tested on: Influenza A (H1N1) Texas/36/91; assay: microbe, parasite or virus in culture; type: cell-based, influenza A virus; details: Influenza A virus, MDCK; Influenza A (H1N1) Texas/36/91; read-out: CPE Inhibition EC50
[2] = tested on: Influenza A (H1N1) Texas/36/91; assay: microbe, parasite or virus in culture; type: cell-based, influenza A virus; details: Influenza A virus, MDCK; Influenza A (H1N1) Texas/36/91; read-out: Neutral Red EC50
[3] = tested on: Influenza A (H3N2) Beijing/32/92; assay: microbe, parasite or virus in culture; type: cell-based, influenza A virus; details: Influenza A virus, MDCK; Influenza A (H3N2) Beijing/32/92; read-out: CPE Inhibition EC50
[4] = tested on: Influenza A (H3N2) Beijing/32/92; assay: microbe, parasite or virus in culture; type: cell-based, influenza A virus; details: Influenza A virus, MDCK; Influenza A (H3N2) Beijing/32/92; read-out: Neutral Red EC50
Influenza B Panama/45/90 [5] = assay: microbe, parasite or virus in culture; type: cell-based; details: Influenza B virus, MDCK; Influenza B Panama/45/90; read-out: CPE Inhibition EC50
Influenza B Panama/45/90 [6] = assay: microbe, parasite or virus in culture; type: cell-based; details: Influenza B virus, MDCK, read-out: Neutral Red EC50
Measles Virus [7] = assay: microbe, parasite or virus in culture; type: cell-based; details: for EC50: Measles morbillivirus, BSC-1, Measles Virus, read-out: CPI Inhibition EC50
Measles Virus [8] = assay: Measles virus neutral red dye uptake in BSC-1 cells; type: cell-based; details: Measles morbillivirus, BSC-1
Adenovirus Type 5 [9] = assay: microbe, parasite or virus in culture; type: cell-based; details: Human mastadenovirus C, A549, read-out: CPE Inhibition EC50
Adenovirus Type 5 [10] = assay: Adenovirus type 5 neutral red dye uptake in A549 cells; type: cell-based; details: Human mastadenovirus C, A549; Adenovirus Type 5; read-out: Neutral Red EC50
[11] = tested on: Parainfluenza Type 3 Virus; assay: organism not typed; type: cell-based; details: MA104; Parainfluenza Type 3 Virus; read-out: CPI Inhibition EC50
[12] = tested on: Parainfluenza Type 3 Virus; assay: organism not typed; type: cell-based; details: MA104, read-out: Neutral Red EC50
[13] = tested on: Respiratory Syncytial Virus; assay: microbe, parasite or virus in culture; type: cell-based; details: human respiratory syncytial virus, MA104; read-out: CPE Inhibition EC50
[14] = tested on: Respiratory Syncytial Virus; assay: microbe, parasite or virus in culture; type: cell-based; details: human respiratory syncytial virus, MA104; read-out: Neutral Red EC50
HIV-1 RT = target: T1, HIV-1 RT (Human immunodeficiency virus type 1 group M subtype B, UniProt P03366); assay: Anti-HIV-1 RT assay (recombinant enzyme); type: biochemical; details: for inhibition at 200 µg/mL: read-out: Anti-HIV-1 RT % Inhibition at 200 μg/ml; for Anti-HIV-1 RT IC50: values in parentheses or in words
T1 construct: made in house; host or cells: Escherichia coli

in vitro [15] = details: dog
in vitro [16] = details: dog, Neutral Red IC50 (cytotoxic)
in vitro [17] = details: African green monkey
in vitro [18] = details: human
in vitro [19] = details: African green monkey; remark: listed apart in the source
HCMV = HCMV CPE inhibition in HFF cells; details: for HCMV SI (CC50/EC50): HFF Cells; for EC50: Human betaherpesvirus 5, HFF, read-out: HCMV CPE Inhibition EC50
HSV-1 = HSV-1 CPE inhibition in HFF cells; details: for HSV-1 SI (CC50/EC50): HFF Cells; for EC50: Human alphaherpesvirus 1, HFF, read-out: HSV-1 CPE Inhibition EC50
HSV-2 = HSV-2 CPE inhibition in HFF cells; details: for HSV-2 SI (CC50/EC50): HFF Cells; for EC50: Human alphaherpesvirus 2, HFF, read-out: HSV-2 CPE Inhibition EC50
VZV = VZV plaque reduction assay in HFF cells; details: for VZV SI (CC50/EC50): HFF Cells; for EC50: Human alphaherpesvirus 3, HFF, read-out: VZV Plaque Reduction EC50
[20] = Cytotoxicity by neutral red dye uptake, A549 cells; details: human
[21] = Cytotoxicity by neutral red dye uptake, BSC-1 cells; details: African green monkey
[22] = Cytotoxicity by neutral red dye uptake, MA-104 cells; details: African green monkey, Neutral Red IC50 (cytotoxic)
[23] = Cytotoxicity (CC50) in HFF cells in the herpes virus tests; details: human
Hepatitis B Virus (HBV) = assay: Inhibition of HBV replication in 2.2.15 cells, extracellular (virion) HBV DNA; details: for anti-HBV activity (in words): 2.2.15 cells; for EC50 / EC90: Hepatitis B virus, 216 h; for EC50: read-out: EC50 (50% effective dose), HBV Virion, 2.2.15 cells, extracellular (virion) HBV DNA, 9 days treatment; for EC90: read-out: EC90 (90% effective dose), HBV Virion, 2.2.15 cells, extracellular (virion) HBV DNA, 9 days treatment;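 for all read-outs here: extracellular virion HBV DNA in culture medium measured by slot blot hybridization with a 32P-labeled HBV probe, quantified against HBV DNA standards, after 9 days of daily dosing, compared with day 0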
Protocol: Test compounds were added daily for a nine continuous day period; the culture medium was collected and stored for analysis of extracellular (virion) HBV DNA after 0, 3, 6, and 9 days of treatment. The treated cells were lysed 24 hours following day 9 of treatment for the analysis of intracellular HBV genomic forms. The overall levels of HBV DNA (both extracellular and intracellular DNA) and the relative rate of HBV replication (intracellular DNA) were analyzed quantitatively. The analysis was performed using blot hybridization techniques and [^32P]-labeled HBV-specific probes. The HBV DNA levels were measured by comparison to known amounts of HBV DNA standards applied to every nitrocellulose membrane (gel or slot blot). An AMBIS beta scanner, which measures the radioactive decay of the hybridized probes directly from the nitrocellulose membranes, was used for the quantitative analysis. Standard curves, generated by multiple analyses, were used to correlate CPM measurements made by the beta scanner with relative levels of target HBV DNA. The levels of HBV virion DNA released into the culture medium were analyzed by a slot blot hybridization procedure. HBV DNA levels were then compared to those at day 0 to determine the effect of the test compound. A known positive drug was evaluated in parallel with test compounds in each test.
Determination of therapeutic concentrations (EC50 and EC90) and toxicity concentrations (IC50) were determined as previously described (90). Stock solutions of text drugs were prepared in DMSO. Culture medium was changed daily and analyzed for extracellular HBV DNA after nine days of continuous drug exposure. Extracellular HBV DNA was extracted from the culture media and analyzed by a slot blot hydridization technique, using a ^32P-labeled Eco RI HBV DNA fragment, as previously described (91), and quantitated via comparison to HBV standards on a nitrocellulose filter, using an AMBIS beta scanner. Toxicity was determined by measuring inhibition of neutral red dye uptake. […] Effective concentration values for individual agents are the mean of six cultures per concentration point. Toxicity values are the mean of three cultures per concentration point.

HFF Cells = assay: Cytotoxicity (CC50) in HFF cells in the herpes virus tests; details: HFF Cells, HSV-2 test
[24] = CPE Inhibition IC50 (50% cell inhibitory (cytotoxic) concentration), Influenza A (H1N1) test
[25] = CPE Inhibition IC50 (cytotoxic), Influenza A (H3N2) test
[26] = CPE Inhibition IC50 (cytotoxic), Influenza B test
[27] = CPE Inhibition IC50 (cytotoxic), Respiratory Syncytial Virus test
[28] = CPI Inhibition IC50 (cytotoxic), Parainfluenza Type 3 Virus test
[29] = Parainfluenza Type 3 Virus test
[30] = Respiratory Syncytial Virus test

Compound `O=C1CC(c2ccc(O)cc2)Oc2cc(O)c(-c3c(O)cc4c(c3O)C(=O)CC(c3ccc(O)cc3)O4)c(O)c21` (stereo not shown) [Succedaneaflavanone (11), succedaneaflavanone] has an EC50 [1] of over 3.2 µg/mL, an EC50 [2] of 5.2 µg/mL (≈ 9.59 µM) and an EC50 [3] of over 10 µg/mL. It also gave an EC50 [4] of 12 µg/mL (≈ 22.1 µM), an EC50 (Influenza B Panama/45/90 [5]) of 0.97 µg/mL (≈ 1.79 µM) and an EC50 (Influenza B Panama/45/90 [6]) of 2.2 µg/mL (≈ 4.06 µM). For the same compound, the EC50 (Measles Virus [7]) was about 32 µg/mL (≈ 59 µM), the EC50 (Measles Virus [8]) was under 12 µg/mL and the EC50 (Adenovirus Type 5 [9]) was 10 µg/mL (≈ 18.4 µM). It also gave an EC50 (Adenovirus Type 5 [10]) of 19 µg/mL (≈ 35 µM), an EC50 [11] of over 10 µg/mL and an EC50 [12] of 23 µg/mL (≈ 42.4 µM). The EC50 [13] was over 10 µg/mL, the EC50 [14] was about 16 µg/mL (≈ 29.5 µM) and the “activity against HIV-1 RT (in words)” value (HIV-1 RT) was “completely inactive”. The inhibition at 200 µg/mL (HIV-1 RT) was 22.1%, the “Anti-HIV-1 RT IC50” value (HIV-1 RT) was “Inactive” and the IC50 (in vitro [15]; [24]) was 4.9 µg/mL (≈ 9.03 µM). For the same compound, the IC50 (in vitro [15]; [25]) was 12 µg/mL (≈ 22.1 µM), the IC50 (in vitro [15]; [26]) was 15 µg/mL (≈ 27.6 µM) and the IC50 (in vitro [16]; Influenza A (H1N1) test) was 5 µg/mL (≈ 9.22 µM). For the same compound, the IC50 (in vitro [16]; Influenza A (H3N2) test) was 12 µg/mL (≈ 22.1 µM), the IC50 (in vitro [16]; Influenza B test) was 7 µg/mL (≈ 12.9 µM) and the IC50 (in vitro [17]) was under 23 µg/mL. The IC50 (in vitro [18]) was 22 µg/mL (≈ 40.6 µM), the IC50 (in vitro [19]; [27]) was about 13 µg/mL (≈ 24 µM) and the IC50 (in vitro [19]; [28]) was about 22 µg/mL (≈ 40.6 µM). The “HCMV SI (CC50/EC50)” value (HCMV) was under 2.7, the EC50 (HCMV) was over 20 µg/mL and the “HSV-1 SI (CC50/EC50)” value (HSV-1) was under 3.0. The EC50 (HSV-1) was over 20 µg/mL, the “HSV-2 SI (CC50/EC50)” value (HSV-2) was under 3.0 and the EC50 (HSV-2) was over 20 µg/mL. For the same compound, the “VZV SI (CC50/EC50)” value (VZV) was under 3, the “VZV SI (CC50/EC50)” value (VZV; listed as Succedaneaflavone (11)) was under 3.0 and the EC50 (VZV) was over 20 µg/mL. The IC50 [20] was 27 µg/mL (≈ 49.8 µM), the IC50 [21] was under 20 µg/mL and the IC50 [22, 29] was about 29 µg/mL (≈ 53.5 µM). It also gave an IC50 [22, 30] of about 10 µg/mL (≈ 18.4 µM), a CC50 at 3 days [23] of 60.7 µg/mL (≈ 112 µM) and a CC50 at 10 days [23] of 60 µg/mL (≈ 111 µM). For the same compound, the CC50 at 14 days [23] was 55.5 µg/mL (≈ 102 µM), the “anti-HBV activity (in words)” value (Hepatitis B Virus (HBV)) was “inactive” and the “anti-HBV activity (in words)” value (Hepatitis B Virus (HBV); listed as succendaneaflavanone) was “little or no anti-HBV activity”. The EC50 (Hepatitis B Virus (HBV)) was over 100 µM and the EC90 (Hepatitis B Virus (HBV)) was over 100 µM.
`O=C1CC(c2ccc(O)cc2)Oc2cc(O)c(-c3c(O)cc(O)c4c3OC(c3ccc(O)cc3)CC4=O)c(O)c21` (stereo not shown) [Rhusflavanone (9), rhusflavanone] gave an EC50 [1] of over 10 µg/mL, an EC50 [2] of 24 µg/mL (≈ 44.2 µM) and an EC50 [3] of over 32 µg/mL. The EC50 [4] was 31 µg/mL (≈ 57.1 µM), the EC50 (Influenza B Panama/45/90 [5]) was 4.1 µg/mL (≈ 7.56 µM) and the “activity against measles virus (in words)” value (Measles Virus [7]) was “some slight activity”. For the same compound, the EC50 (Measles Virus [7]) was 14 µg/mL (≈ 25.8 µM), the EC50 (Measles Virus [8]) was 5 µg/mL (≈ 9.22 µM) and the EC50 (Adenovirus Type 5 [9]) was 56 µg/mL (≈ 103 µM). The EC50 (Adenovirus Type 5 [10]) was 33 µg/mL (≈ 60.8 µM), the EC50 [11] was over 100 µg/mL and the EC50 [12] was 85 µg/mL (≈ 157 µM). The EC50 [13] was over 10 µg/mL, the EC50 [14] was 27 µg/mL (≈ 49.8 µM) and the “activity against HIV-1 RT (in words)” value (HIV-1 RT) was “completely inactive”. For the same compound, the inhibition at 200 µg/mL (HIV-1 RT) was 14.1%, the “Anti-HIV-1 RT IC50” value (HIV-1 RT) was “Inactive” and the IC50 (in vitro [15]; [24]) was 8.2 µg/mL (≈ 15.1 µM). For the same compound, the IC50 (in vitro [15]; [25]) was 24 µg/mL (≈ 44.2 µM), the IC50 (in vitro [15]; [26]) was 38 µg/mL (≈ 70 µM) and the IC50 (in vitro [16]; Influenza A (H1N1) test) was 26 µg/mL (≈ 47.9 µM). It also gave an IC50 (in vitro [16]; Influenza A (H3N2) test) of 31 µg/mL (≈ 57.1 µM), an IC50 (in vitro [17]) of 21 µg/mL (≈ 38.7 µM) and an IC50 (in vitro [18]) of 47 µg/mL (≈ 86.6 µM). For the same compound, the IC50 (in vitro [19]; [27]) was 18 µg/mL (≈ 33.2 µM), the IC50 (in vitro [19]; [28]) was 47 µg/mL (≈ 86.6 µM) and the “HCMV SI (CC50/EC50)” value (HCMV) was under 3.4. For the same compound, the EC50 (HCMV) was over 4 µg/mL, the “HSV-1 SI (CC50/EC50)” value (HSV-1) was 0 and the EC50 (HSV-1) was over 100 µg/mL. The “activity against HSV-2 (in words)” value (HSV-2) was “active”, the “HSV-2 SI (CC50/EC50)” value (HSV-2) was over 6.4 and the EC50 (HSV-2) was 15.7 µg/mL (≈ 28.9 µM). For the same compound, the “VZV SI (CC50/EC50)” value (VZV) was under 4, the EC50 (VZV) was over 4 µg/mL and the IC50 [20] was 15 µg/mL (≈ 27.6 µM). The IC50 [21] was 40 µg/mL (≈ 73.7 µM), the IC50 [22, 29] was 30 µg/mL (≈ 55.3 µM) and the IC50 [22, 30] was 20 µg/mL (≈ 36.9 µM). The CC50 at 3 days [23] was over 100 µg/mL, the CC50 at 10 days [23] was 16 µg/mL (≈ 29.5 µM) and the CC50 at 14 days [23] was 13.7 µg/mL (≈ 25.3 µM). The “HSV-2 CPE Inhibition CC50” value (HFF Cells) was over 100 µg/mL, the “anti-HBV activity (in words)” value (Hepatitis B Virus (HBV); listed as rhusflavanone) was “inactive” and the “anti-HBV activity (in words)” value (Hepatitis B Virus (HBV); listed as rhusflavanone (9)) was “little or no anti-HBV activity”. It also gave an EC50 (Hepatitis B Virus (HBV)) of over 100 µM and an EC90 (Hepatitis B Virus (HBV)) of over 100 µM.
